Assay results as given in US12016864B2, “LOX enzyme inhibiting methods and compositions” (ANOVIA BIOSCIENCES, INC., priority 2021, dated 2024).

What was measured:
[1] = target: T1, Recombinant human LOXL2 (lysyl oxidase like 2) (Homo sapiens, UniProt Q9Y4K0); assay: LOXL2 inhibition assay, fluorometric (cadaverine / HRP / Amplex Red); type: biochemical; details: recombinant human LOXL2 130 nM; 30 min preincubation at 37° C.; 2.5 mM cadaverine; read-out: Activity Range LOXL2
T1 construct: purchased R&D systems
T1 sequence (Q9Y4K0 26-774): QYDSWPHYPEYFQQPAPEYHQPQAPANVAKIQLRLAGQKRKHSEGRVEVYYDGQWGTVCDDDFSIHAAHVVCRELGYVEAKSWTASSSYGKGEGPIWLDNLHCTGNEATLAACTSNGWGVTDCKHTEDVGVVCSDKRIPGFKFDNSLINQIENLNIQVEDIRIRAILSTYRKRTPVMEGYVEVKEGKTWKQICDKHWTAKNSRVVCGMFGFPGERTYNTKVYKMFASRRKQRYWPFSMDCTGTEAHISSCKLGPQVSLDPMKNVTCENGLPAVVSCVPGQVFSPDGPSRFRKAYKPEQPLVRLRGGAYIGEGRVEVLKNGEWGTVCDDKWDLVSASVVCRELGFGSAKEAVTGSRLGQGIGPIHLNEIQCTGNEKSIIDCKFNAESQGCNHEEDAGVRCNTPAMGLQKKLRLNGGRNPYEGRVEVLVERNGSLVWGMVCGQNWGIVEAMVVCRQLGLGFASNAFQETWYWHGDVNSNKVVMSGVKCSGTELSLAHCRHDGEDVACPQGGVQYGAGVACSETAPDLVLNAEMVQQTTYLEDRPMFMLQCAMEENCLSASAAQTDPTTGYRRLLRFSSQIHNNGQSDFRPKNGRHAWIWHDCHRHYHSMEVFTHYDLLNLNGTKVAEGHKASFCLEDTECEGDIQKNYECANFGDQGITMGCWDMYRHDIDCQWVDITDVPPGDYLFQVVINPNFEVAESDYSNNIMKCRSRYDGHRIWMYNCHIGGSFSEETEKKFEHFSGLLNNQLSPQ
In short: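 Recombinant human LOXL2 or LOXL3 in 1.2 M urea, 50 mM sodium borate pH 8.0, 10 mM CaCl, preincubated with compound 30 min at 37 °C. Cadaverine substrate added; H2O2 detected by HRP/Amplex Red fluorescence, read kinetically for 60 min at 37 °C. Initial-rate slopes, background-subtracted and normalised to DMSO, fitted to a 4-parameter curve with bottom fixed at 0.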

[2] = target: T2, Recombinant human LOXL3 (lysyl oxidase like 3) (Homo sapiens, UniProt P58215); assay: LOXL3 inhibition assay, fluorometric (cadaverine / HRP / Amplex Red); type: biochemical; details: recombinant human LOXL3 150 nM; 30 min preincubation at 37° C.; 1 mM cadaverine; read-out: Activity Range LOXL3
T2 construct: purchased R&D systems
T2 sequence (P58215 26-753): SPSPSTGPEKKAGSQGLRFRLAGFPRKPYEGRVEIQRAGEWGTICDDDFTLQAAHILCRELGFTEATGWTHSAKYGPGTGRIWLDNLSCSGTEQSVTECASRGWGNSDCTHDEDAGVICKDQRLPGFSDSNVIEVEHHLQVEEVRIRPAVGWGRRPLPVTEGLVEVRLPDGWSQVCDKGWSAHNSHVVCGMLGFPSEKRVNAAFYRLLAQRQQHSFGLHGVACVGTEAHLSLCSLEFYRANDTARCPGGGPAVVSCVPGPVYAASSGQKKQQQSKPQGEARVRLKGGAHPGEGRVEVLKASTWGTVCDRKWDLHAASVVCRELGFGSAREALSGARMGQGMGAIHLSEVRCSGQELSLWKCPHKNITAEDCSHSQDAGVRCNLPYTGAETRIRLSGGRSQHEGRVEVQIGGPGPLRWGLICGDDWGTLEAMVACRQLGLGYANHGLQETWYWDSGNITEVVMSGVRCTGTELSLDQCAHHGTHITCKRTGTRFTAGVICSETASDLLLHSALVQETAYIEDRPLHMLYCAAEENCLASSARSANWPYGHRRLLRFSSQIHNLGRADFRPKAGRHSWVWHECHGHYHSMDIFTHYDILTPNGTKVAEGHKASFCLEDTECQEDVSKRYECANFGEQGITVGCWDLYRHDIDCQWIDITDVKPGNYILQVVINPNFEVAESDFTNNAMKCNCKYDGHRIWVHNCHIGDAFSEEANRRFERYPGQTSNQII
Description: The ability of compounds to inhibit one or more of the lysyl oxidases LOXL2 and/or LOXL3 was determined using a fluorometric assay. This assay measures the activity of lysyl oxidases by coupling the reaction with horseradish peroxidase-catalyzed […]. The activity assay protocol uses cadaverine as substrate that releases hydrogen peroxide upon transformation by the specific LOX family enzyme present in the sample. Hydrogen peroxide is in turn detected using a red fluorescence substrate for HRP-coupled reactions (Amplex Red Enzyme Assays, Thermo Scientific Fisher). This leads to increase in fluorescence that can be easily detected at Ex/Em=540/590 nm in a fluorescence microplate reader.
Recombinant human LOXL2 (lysyl oxidase like 2) and recombinant human LOXL3 (lysyl oxidase like 3) were purchased from R&D systems and assays were performed in 1.2 M urea, 50 mM sodium borate buffer pH 8.0, and 10 mM CaCl.
5 μl of freshly prepared reaction buffer were delivered to reaction wells. Compounds were resuspended in 100% DMSO at 10 mM and delivered into buffer using acoustic technology (Echo550; nanoliter range). A 3× solution of LOXL2 or LOXL3 in reaction buffer was prepared (“enzyme solution”) and 5 μL of enzyme solution was added into the reaction wells. Buffer only was added to column 1 for no protein control. Reactions were incubated for 30 minutes at 37° C. A 3× mixture of cadaverine, Amplex Red, and HRP (“Substrate/Detection Mix) was prepared and subsequently 5 μL of the mixture added to each reaction well. Progress of reactions was monitored for 60 minutes at 37° C. using Clariostar plate reader (ex 530-12, ems 600-40). For all activity assays, pan-LOX inhibitor CCT365623 (Tang et al, 2017) and LOXL2/LOXL3 inhibitor PAT-1251 (PharmaKea) were included as standards.
For the data analysis, the slope of the linear portion of the progress curve was calculated using Clariostar software. Typical analysis interval was between 8-30 min, but varied between experiments. The background-subtracted signals (No protein wells are considered as background) were converted to % activity relative to DMSO controls. Data was analyzed using GraphPad Prism 4 with “sigmoidal dose-response (variable slope)”; 4 parameters with Hill Slope. Constraints: Bottom=Constant equal to 0. Top=Must be less than 120.

IC50 [1] [nM]	IC50 [2] [nM]	SMILES
≤ 500	≤ 500	NCc1ccnc(S(=O)(=O)C[C@H]2C[C@@H](c3ccccc3)CN2S(=O)(=O)N2CCOCC2)c1 (single isomer, unassigned) [Example 195A]
≤ 500	≤ 500	NCc1ccnc(S(=O)(=O)C[C@@H]2C[C@H](c3ccccc3)CN2S(=O)(=O)N2CCOCC2)c1 (single isomer, unassigned) [Example 195B]
≤ 500	≤ 500	NCc1ccnc(S(=O)(=O)C[C@@H]2C[C@H](c3ccccc3)CN2S(=O)(=O)N2CCS(=O)(=O)CC2)c1 [Example 196A, 4-(((2S,4R)-2-(((4-(aminomethyl)pyridin-2-yl)sulfonyl)methyl)-4-phenylpyrrolidin-1-yl)sulfonyl)thiomorpholine 1,1-dioxide 2,2,2-trifluoroacetate]

The remaining lines, values behind:

SMILES	IC50 [1] [nM]	IC50 [2] [nM]
NCc1ccnc(S(=O)(=O)C[C@@H]2C[C@H](c3ccccc3)CN2S(=O)(=O)N2CCOCC2)c1 (racemic) [Example 195, Cis-(2-(((1-(Morpholinosulfonyl)-4-phenylpyrrolidin-2-yl)methyl)sulfonyl)pyridin-4-yl)methanamine 2,2,2-trifluoroacetate]	≤ 500	≤ 500
NCc1ccnc(S(=O)(=O)C[C@@H]2C[C@H](c3ccccc3)CN2S(=O)(=O)N2CCS(=O)(=O)CC2)c1 (racemic) [Example 196, cis-4-((2-(((4-(Aminomethyl)pyridin-2-yl)sulfonyl)methyl)-4-phenylpyrrolidin-1-yl)sulfonyl)thiomorpholine 1,1-dioxide 2,2,2-trifluoroacetate]	≤ 500	≤ 500
NCc1ccnc(S(=O)(=O)C[C@H]2C[C@@H](c3ccccc3)CN2S(=O)(=O)N2CCS(=O)(=O)CC2)c1 [Example 196B, 4-(((2R,4S)-2-(((4-(aminomethyl)pyridin-2-yl)sulfonyl)methyl)-4-phenylpyrrolidin-1-yl)sulfonyl)thiomorpholine 1,1-dioxide 2,2,2-trifluoroacetate]	≤ 500	≤ 500
